PMC3338766 (2012)

Columns and labels:
[1] = system: d(T2G8) (DNA, G4) GGGGTTGGGG; experiment: ESI-MS, relative binding affinity; conditions: 50 mM ammonium acetate; residual K+; 10 nM quadruplex and ligand, 10% methanol; intensity-derived index, not a constant
[2] = system: d(T2G8) (DNA, G4) GGGGTTGGGG; experiment: UV-Vis titration (soret shift 424–434 nm, 38.2% hypochromicity); conditions: K+ (100 mM KCl, 30 mM potassium phosphate); 5 µM TMPyP4, 25 °C
[3] = system: d(T2G8) (DNA, G4) GGGGTTGGGG; experiment: ITC; conditions: K+ (100 mM KCl, 30 mM potassium phosphate); pH 7.0, 25 °C; two-sites model; site 1 of 2
[4] = system: d(T2G8) (DNA, G4) GGGGTTGGGG; experiment: SYBR Green fluorescence melting; conditions: K+ (100 mM KCl, 30 mM potassium phosphate), 5 µM quadruplex, 1× SYBR Green, ligand concentration not stated

`C[n+]1ccc(-c2c3nc(c(-c4cc[n+](C)cc4)c4ccc([nH]4)c(-c4cc[n+](C)cc4)c4nc(c(-c5cc[n+](C)cc5)c5ccc2[nH]5)C=C4)C=C3)cc1` was tested. Which IRa [1] did it give?
Its IRa is 0.18.

And the binding [2]?
The binding was “yes”.

Which results are given for `COc1cc2c(cc1OCCCC(=O)Nc1ccc3ccc4cccc5ccc1c3c45)N=C[C@@H]1CCCN1C2=O`?
IRa [1]: 0.45; K1 [3]: 0.0597 (±0.01) × 10^8; Tm ([4]; Tm 43 to 36 °C, derived from two Tm): -7 °C

Which results are given for `COc1cc2c(cc1OCCCCCOc1cc3c(cc1OC)C(=O)N1CCC[C@H]1C(=O)N3)N=C[C@@H]1CCCN1C2=O`?
IRa [1]: 0.67; K1 [3]: 0.0875 (±0.03) × 10^8; Tm ([4]; Tm 43 to 49 °C): ~ 6 °C
